`Cc1ccc(C)c2ccccc12` and `Cc1cccc2c(C)cccc12` are the same in logP: 4.22 for the first, 4.22 for the second.

First: Cc1ccc2cc(C)c(C)cc2c1
Second: Cc1cc(C)c2cc(C)ccc2c1
The logP of the first is higher: 4.7 for the first, 4.38 for the second.

Going from `Cc1ccc2ccccc2c1` to `Cc1ccc2cc(C)ccc2c1`, the logP rises from 3.96 to 4.39.

Going from `Cc1ccc2c(C)c(C)ccc2c1C` to `Cc1ccc2c(C)ccc(C)c2c1`, the logP falls from 4.95 to 4.55.

`Cc1cc(C)c2c(C)cccc2c1` and `Cc1ccc(C)c2c(C)cccc12` are within 0.2 log units of each other in logP: 4.52 for the first, 4.48 for the second.

First: Cc1cc2c(C)ccc(C)c2cc1C
Second: Cc1cc(C)c2ccccc2c1C
The logP of the first is higher: 4.74 for the first, 4.49 for the second.

`Cc1ccc2c(C)cccc2c1` and `Cc1ccc2cccc(C)c2c1` are within 0.2 log units of each other in logP: 4.27 for the first, 4.19 for the second.

Work on `Cc1ccc2ccc(C)cc2c1` yielded a logP of 4.37.

Source: the SangsterLogP compilation
